Patent US20240277767A1, “METHODS AND USES” (PROLEUKOCYTE AB, priority 2021, published 2024)

Legend:
Assay type in all cases: cell-based, human
[1] = system: tumour infiltrating lymphocytes (TIL); experiment: IFNγ release by pre-treated TIL on autologous tumour cells after H2O2 treatment; details: KADA and ANRU melanoma TIL, E:T 4:1, vs control group
Description: ., 2020). […] For Nrf2 inhibition, NK cells were treated with 50 μM ML-385 (Sigma-Aldrich) in parallel. […] Cells were washed with medium and then used for further experiments. For monocyte experiments, autologous NK cell-monocytes or TIL-monocytes were used. […] Stimulated monocytes were activated with 100 ng/ml PMA for 1 min, washed and added at indicated ratio, the number of NK cell/TIL was kept constant. […] For cytokine release assay, NK cells and TIL were cultured with indicated tumour cells at the effector target ratio 4:1 (E:T) for 24 h in U-bottom plates. IFNγ secretion was measured using human IFN-γ ELISA development kit (Mabtech) following the manufacturer's instructions.

[2] = system: Nrf2 target genes (NQO1, HMOX1, TXNRD1, Keap1); experiment: qPCR of classical Nrf2 target genes in NK cells; details: kinetic, fold change vs untreated
Description: Lymphocytes were pre-treated with AUF, SUL or DMF as described above. RNA was isolated using TRIzol™ Plus RNA Purification Kit (Invitrogen). cDNA was generated using the iScript™ cDNA Synthesis Kit (Bio-Rad) and qPCR was done using iTaq™ Universal SYBR® Green Supermix (Bio-Rad) in the CFX96 Touch Real-Time PCR Detection System (Bio-Rad). Fold change expression from untreated cells was calculated using the 2^-ΔΔCt formula with b-actin as reference gene. Evaluated genes were NAD(P)H Quinone Dehydrogenase 1 (NQO1), Kelch Like ECH Associated Protein 1 (Keap1), Heme Oxygenase 1 (HMOX1) and Thioredoxin Reductase 1 (TXNRD1).

[3] = system: NK cells; experiment: [Cr51]-release assay: lysis of tumour target cells by pre-treated NK cells after H2O2 exposure; details: for Lysis of K562 target cells by pre-treated NK cells after H2O2 exposure: 18 h pre-treatment, H2O2 1 h up to 250 μM, E:T 9:1, vs control NK cells; for Suppressive effect of H2O2 on lymphocyte function (killing, degranulation, IFNγ): expanded NK cells and patient derived TIL, pre-treatment; for Dependence of the protective effect on Nrf2 activation: qPCR of Nrf2 target genes and K562 lysis with/without Nrf2 inhibitor ML385
Excerpt: Peripheral blood samples (anonymized by-products of blood donations from healthy adult donors) were purchased from Karolinska University Hospital Blood Bank. Peripheral blood mononuclear cells (PBMC) were isolated from healthy donor buffy coats using density centrifugation with Ficoll® Paque Plus (GE Healthcare). NK cells and CD14^+ monocytes were isolated from PBMCs using NK cell isolation kit or CD14^+ microbeads, respectively (both Miltenyi Biotec), following the manufacturer's instructions. For NK cell expansion, a EBV-LCL feeder cell line was used, irradiated at 100 gy and then co-cultured with NK cells, at the ratio 10:1 LCL:NK, in X-Vivo 20 (Lonza) supplemented with 10% human AB serum and 1000 U/mL IL-2 (Proleukin). From day 6 or 10, NK cells were kept at 0.5×10^6 cells/mL or 1×10^6/mL, respectively. Purity of expanded NK cell was assessed at day 10 by flow cytometry, see below.
Lymphocytes were pre-treated for 18 h with Auranofin (AUF, with the concentration 1 μg/mL for NK cells and 0.5 μg/mL for TIL, if not indicated differently), DL-Sulforaphane (SUL) or Dimethyl Fumarate (DMF) (all Sigma-Aldrich) at indicated concentrations.
(§1) For Nrf2 inhibition, NK cells were treated with 50 μM ML-385 (Sigma-Aldrich) in parallel. For H2O2 treatment, lymphocyte cells were washed and resuspended to 1×10^6 cells/mL in medium and exposed to indicated H2O2 (Sigma-Aldrich) concentration for 1 h at 37° C. Cells were washed with medium and then used for further experiments. For monocyte experiments, autologous NK cell-monocytes or TIL-monocytes were used. NK cells/TIL were isolated and pre-treated with 0.5 μg/mL AUF, as described above, and co-cultured with unstimulated at the ratio, 1:2 M:NK, or stimulated monocytes at the ratio, 1:1 M:NK, if not indicated otherwise. Stimulated monocytes were activated with 100 ng/ml PMA for 1 min, washed and added at indicated ratio, the number of NK cell/TIL was kept constant. As control, H2O2 was used at indicated concentration. Cells were co-cultured for 2 h and then effector cells were stained for intracellular ROS (see flow cytometry) or used as effector cells in Cr^51 release assay (E:T ratio 10:1).
(§2) For cytotoxic assay, a standard 4 h [Cr^51]-release assay was used. Briefly, tumour cells were harvested and labeled with 51Cr (PerkinElmer) and used as target cells. Effector cells, NK cells and T cells, were co-cultured in 96-well V-bottom plate with indicated tumour cells at the stated effector target ratio (E:T). The supernatant was collected onto LUMA plates (Perkin-Elmer) and radioactivity/tumour cell lysis was detected by MicroBeta2 (Perkin Elmer). Target cell killing measured by % specific lysis and calculated using the formula: ((experimental release-spontaneous release)/(maximum release-spontaneous release))*100.
Lymphocytes were pre-treated for 18 h with Auranofin (AUF, with the concentration 1 μg/mL for NK cells and 0.5 μg/mL for TIL. As AUF was reconstituted in DMSO, control NK cells were pre-treated with DMSO with an equivalent volume to the highest compound concentration. For N-acetylcysteine (NAC, Invitrogen) treatment, DMSO pre-treated cells were incubated for 1 h with 5 or 10 mM NAC prior to H2O2 treatment. For H2O2 treatment, lymphocytes were washed and resuspended to 1×10^6 cells/mL in RPMI containing the indicated H2O2 (Sigma-Aldrich) concentration for 1 h at 37° C. 5% CO2. Cells were washed with medium and then used for further experiments.

[4] = system: NK cells; experiment: ADCC: NK cells with RAJI cells coated with Rituximab or Ofatumumab; details: Rituximab 0.5 μg/mL or Ofatumumab 0.05 μg/mL, E:T 9:1
Description: Lymphocytes were isolated and pre-treated when indicated, with compound and H2O2, as described above. For degranulation/measuring CD107a expression, NK cells were co-cultured with K562 tumour cells at an effector target ratio 1:1 in the presence of anti-CD107a in U-bottom plates. After 2 h, GolgiStop™ and GolgiPlug™ (BD Bioscience) were added and cells were harvested after an additional 4 h co-culture and stained for CD56 and CD3, as described above. For positive control, 25 ng/ml PMA (Sigma Aldrich) and 500 ng/mL Ionomycin (Sigma Aldrich) were added.
as §2
For analyzing ADCC, NK cells were cultured with RAJI cells and Rituximab (0.5 μg/mL, MabThera, Roche) or Ofatumumab (0.05 μg/mL, Arzerra, Novartis).

[5] = system: NK cells; experiment: NK cells co-cultured with PMA-activated autologous monocytes: intracellular ROS and K562 lysis; details: 100 U/mL catalase; intracellular ROS and K562 lysis
Description: as §1
Monocytes were stimulated with 100 ng/ml PMA for 1 min and washed with HBSS (Gibco). Cells were resuspended in HBSS 5% FBS and added to a 96-well Optiplate (Perkin Elmer) containing HBSS 5% FBS and Luminol (56 μM; Sigma). Luminescence was measured immediately using a EnSpire plate reader (Perkin Elmer).
For detection of intracellular ROS levels, for NK cells CellROX™ Deep Red Reagent (Invitrogen) were used. Briefly, NK cells were stained with 2.5 μM CellROX solution in RPMI for 30 min at 37° C. and then stained for flow cytometry with anti-CD56 and anti-CD3 (both Biolegend).
as §2

## C[S+]([O-])CCCCN=C=S (racemic) [SUL, 1-Isothiocyanato-4-(methanesulfinyl)butane]
[1]
  Recognition of autologous tumour cells by TIL (IFNγ production) upon exposure to H2O2: increased recognition of their autologous tumour cells
[2]
  Influence on Nrf2 target genes in NK cells compared with AUF: comparable influence
[3]
  Lysis of K562 target cells by pre-treated NK cells after H2O2 exposure: comparable protective effects as AUF
  Suppressive effect of H2O2 on lymphocyte function (killing, degranulation, IFNγ): counteracts the suppressive effect of H2O2 on lymphocyte function
  Dependence of the protective effect on Nrf2 activation: dependent on Nrf2 activation

## COC(=O)/C=C/C(=O)OC [DMF, Dimethyl (E)-butenedioate]
[1]
  Recognition of autologous tumour cells by TIL (IFNγ production) upon exposure to H2O2: increased recognition of their autologous tumour cells
[2]
  Influence on Nrf2 target genes in NK cells compared with AUF: comparable influence
[3]
  Lysis of K562 target cells by pre-treated NK cells after H2O2 exposure: comparable protective effects as AUF
  Suppressive effect of H2O2 on lymphocyte function (killing, degranulation, IFNγ): counteracts the suppressive effect of H2O2 on lymphocyte function
  Dependence of the protective effect on Nrf2 activation: dependent on Nrf2 activation

## Cc1ccccc1C(=O)N1CCc2cc(-c3nc(NC(=O)Cc4ccc5c(c4)OCO5)sc3C)ccc21 [ML385]
[3]; 50 μM ML385
  Effect of ML385 on K562 lysis by DMSO pre-treated control NK cells: no effects
[3]; 50 μM ML385, cells exposed to H2O2
  Lysis of K562 by NK cells pre-treated with AUF, SUL or DMF in combination with ML385: significantly reduced

## CC(=O)N[C@@H](CS)C(=O)O [NAC, N-acetylcysteine]
[3]; 1 h, 5 or 10 mM NAC, increased H2O2 concentrations
  Protection of K562 lysis by control NK cells pre-treated with NAC, compared to AUF: less protection

## Ofatumumab: antibody therapy targeting CD20
[4]
  Recognition of antibody-coated RAJI cells by NK cells (killing and CD107a degranulation): efficient recognition of the target cells

## Rituximab: antibody therapy targeting CD20
[4]
  Recognition of antibody-coated RAJI cells by NK cells (killing and CD107a degranulation): efficient recognition of the target cells

B1: catalase: an enzyme efficiently converting H2O2 to H2O and O2 (protein, UniProt P04040 2-527, looked up)
Catalase: ADSRDPASDQMQHWKEQRAAQKADVLTTGAGNPVGDKLNVITVGPRGPLLVQDVVFTDEMAHFDRERIPERVVHAKGAGAFGYFEVTHDITKYSKAKVFEHIGKKTPIAVRFSTVAGESGSADTVRDPRGFAVKFYTEDGNWDLVGNNTPIFFIRDPILFPSFIHSQKRNPQTHLKDPDMVWDFWSLRPESLHQVSFLFSDRGIPDGHRHMNGYGSHTFKLVNANGEAVYCKFHYKTDQGIKNLSVEDAARLSQEDPDYGIRDLFNAIATGKYPSWTFYIQVMTFNQAETFPFNPFDLTKVWPHKDYPLIPVGKLVLNRNPVNYFAEVEQIAFDPSNMPPGIEASPDKMLQGRLFAYPDTHRHRLGPNYLHIPVNCPYRARVANYQRDGPMCMQDNQGGAPNYYPNSFGAPEQQPSALEHSIQYSGEVRRFNTANDDNVTQVRAFYVNVLNEEQRKRLCENIAGHLKDAQIFIQKKAVKNFTEVHPDYGSHIQALLDKYNAEKPKNAIHTFVQSGSHLAAREKANL
[3]; catalase added to control NK cells before incubation with H2O2
  Lysis of K562 target cells by control NK cells with catalase added before H2O2: improve the function of the control NK cells in a comparable way to AUF pre-treatment
[5]
  Difference between activated monocytes or H2O2 treated control NK cells in the presence of catalase: no difference
